Results as given in PubChem BioAssay (NCI).
Several values for one entry are separate records, joined by “and”; a condition that tells them apart may be missing. Equal values may be shown once.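 Dose response: 5 concentrations. Exposure: 48 h. Format: 96-well plates. Endpoint: linear interpolation; highest concentration if not reached. At the GI50, growth is halved. At the TGI there is no net growth.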

Legend:
Assay in all cases: DTP human tumour cell line panel, 48 h
HOP-62 NSCLC = tested on: HOP-62 NSCLC
OVCAR-4 ovarian = tested on: OVCAR-4 ovarian
OVCAR-8 ovarian = tested on: OVCAR-8 ovarian
SF-295 CNS = tested on: SF-295 CNS
SK-MEL-28 melanoma = tested on: SK-MEL-28 melanoma
SN12C renal = tested on: SN12C renal
SNB-75 CNS = tested on: SNB-75 CNS
UACC-62 melanoma = tested on: UACC-62 melanoma
NCI-H522 lung = tested on: NCI-H522 lung
MDA-MB-231 breast = tested on: MDA-MB-231 breast

Compound | TGI (HOP-62 NSCLC) | TGI (OVCAR-4 ovarian) [µM] | TGI (OVCAR-8 ovarian) | TGI (SF-295 CNS) [µM] | TGI (SK-MEL-28 melanoma) | TGI (SN12C renal) [µM] | TGI (SNB-75 CNS) [µM] | TGI (UACC-62 melanoma) | GI50 (NCI-H522 lung) [nM] | TGI (NCI-H522 lung) [µM] | GI50 (OVCAR-4 ovarian) [nM] | GI50 (OVCAR-8 ovarian) [µM] | GI50 (SF-295 CNS) [µM] | GI50 (SK-MEL-28 melanoma) | GI50 (SN12C renal) [µM] | GI50 (SNB-75 CNS) [µM] | GI50 (UACC-62 melanoma) | GI50 (HOP-62 NSCLC) [µM] | GI50 (MDA-MB-231 breast) [µM] | TGI (MDA-MB-231 breast) [µM]
Cc1ccc(/C=N/NS(=O)(=O)c2ccccc2)cc1C | > 100 µM | > 100 | > 100 µM | > 100 | > 100 µM | > 100 | > 100 | > 100 µM |  |  |  |  |  |  |  |  |  |  |  | 
CC(C)CCCCCCCCCCCCC(=O)NCC(=O)NC1C(C)OC(Nc2ncnc3nc[nH]c23)C(O)C1O (stereo unspecified) | 0.00859 µM | 0.00803 | 0.00924 µM and 0.0182 µM | < 0.0295 | 0.485 µM and 1.26 µM | 0.683 | 0.00316 | 0.00892 µM and 0.0226 µM | 1.37 | 0.0182 | 14.8 | 0.00187 | 0.0176 | 8.69 nM and 48.4 nM | 0.00548 | 0.0522 | 0.425 nM and 0.705 nM |  |  | 
C=CCOc1ccc(N)c([N+](=O)[O-])c1 | > 100 µM |  | > 100 µM | > 100 | > 100 µM | > 100 | > 100 | > 100 µM |  | > 100 |  |  |  |  |  |  |  |  |  | 
CC[O-].CC[O-].O=C([CH-]C(=O)c1ccccc1)CCCCCCC(=O)[CH-]C(=O)c1ccccc1.[Ti+4] | > 100 µM | > 100 | > 100 µM | > 100 | > 100 µM | > 100 | > 100 | > 100 µM |  |  | > 100000 | > 100 | > 100 | > 100000 nM | > 100 | > 100 | > 100000 nM | > 100 |  | 
O=[N+]([O-])c1cc(I)cc(/C=N/NS(=O)(=O)c2ccc(Cl)cc2)c1O | 53.6 µM | 85.6 | 37.6 µM | 60.6 | 73.8 µM | 49.4 | 61.2 | 57.6 µM |  | 33.2 |  |  |  |  |  |  |  |  |  | 
CC(=O)NCc1c(C(N)=O)ncn1Cc1ccccc1 | > 100 µM | > 100 | > 100 µM | > 100 | > 100 µM | > 100 | > 100 | > 100 µM |  |  |  |  |  |  |  |  |  |  |  | 
C1C[OH+]CCNCC[OH+]CC[OH+]CCN1.N.[Cl-].[Pt+4] | > 100 µM | > 100 | > 100 µM | > 100 | > 100 µM | > 100 | > 100 | > 100 µM | 14200 | 48.7 | > 100000 | 18.8 | 49 | 49500 nM | > 100 | 24.2 | 31600 nM | > 100 |  | 
COc1cc2c(c(OC)c1OC)-c1c(c3ccc([N+](=O)[O-])cc3c(=O)n1CCCBr)C2=O | 54.3 µM |  | > 100 µM | > 100 | > 100 µM | > 100 | > 100 | 90.1 µM | 17000 | > 100 |  | 49.8 | 24.2 | > 100000 nM | 19.7 | 80 | 23800 nM | 15.8 | 31.3 | > 100
COc1cc2c(cc1O)c(=O)n(CCN(C)C)c1c3cc4c(cc3ncc21)OCO4 | 0.044 µM | 1.74 | 2.52 µM | 4.02 | 1.01 µM | 10.5 | 0.315 |  | < 10.4 | 0.154 | 51.1 | < 0.0116 | 0.0517 | 53 nM | < 0.01 | < 0.0152 |  | < 0.01 | 0.0616 | 5.58
O=C1NC2(CCCC2)C2CCCCC12O (stereo unspecified) | > 100 µM | > 100 | > 100 µM | > 100 | > 100 µM | > 100 | > 100 | > 100 µM |  | > 100 |  |  |  |  |  |  |  |  |  | 
CC(=O)OC1=C2CC[C@@H]3C(CC[C@@]4(C)C3CC[C@@H]4OC(C)=O)[C@@]2(C)CC(C#N)C1=O (stereo partly specified) | > 100 µM | 59.4 | > 100 µM | > 100 | > 100 µM | > 100 | 72.9 | 38.9 µM |  |  |  |  |  |  |  |  |  |  |  | 
COc1ccccc1NC(=O)C1=C(C)NC(C)=C(C(=O)Nc2ccccc2OC)C1c1ccccc1Cl | > 100 µM | > 100 | > 100 µM | > 100 | > 100 µM | > 100 | > 100 | > 100 µM |  |  |  |  |  |  |  |  |  |  |  | 
COc1ccc(C[C@]23CCC(=O)N2CCc2cc(OC)c(O)cc23)cc1O | > 100 µM | > 100 | 78.6 µM | > 100 | > 100 µM | > 100 | > 100 | > 100 µM |  |  |  |  |  |  |  |  |  |  |  | 
CN(/N=C/c1ccccc1O)c1ccc2ccccc2n1 | 29.9 µM | 67.7 | > 100 µM | 30.4 | > 100 µM | > 100 |  | > 100 µM |  | 80.9 |  |  |  |  |  |  |  |  |  | > 100
OCCN(CCO)c1nc(N2CCCCC2)c2nc(N(CCO)CCO)nc(N3CCCCC3)c2n1 | > 100 µM | > 100 | > 100 µM |  | > 100 µM | > 100 |  |  |  | 39.6 |  |  |  |  |  |  |  |  |  | > 100
COc1ccc(-c2oc3c(OC)c(OC)c(OC)c(O)c3c(=O)c2OC)cc1O | 0.877 µM and 4.75 µM | > 100 | > 100 µM | 21.2 | > 100 µM | > 100 | < 0.01 | 19.8 µM |  | < 0.01 |  | < 0.01 |  |  | < 0.01 | < 0.01 | < 10 nM | 0.0478 |  | 
O=S1(=O)c2cc(S(=O)(=O)n3ccnc3)ccc2NC2=NCCCN21 | 63.6 µM | > 100 | 70 µM | > 100 | > 100 µM | > 100 | 88.1 | > 100 µM |  | 30.9 |  |  |  |  |  |  |  |  |  | 
O=C(c1ccccc1)C1OC1C(=O)c1ccccc1 (stereo unspecified) |  | 26.3 | > 100 µM | 37.3 | 44.5 µM | 63.4 |  | 15.9 µM | 323 | 2.24 | 3840 | 4.02 | 5.03 | 4280 nM | 3.22 |  | 2910 nM |  | 3.31 | > 100
CN(C)CCN(C)C(=O)c1cccc2cccc(C(=O)O)c12 | > 100 µM | > 100 | > 100 µM | > 100 | > 100 µM | > 100 | > 100 | > 100 µM |  |  |  |  |  |  |  |  |  |  |  | 
